What was measured:
[1] = Stability test (2): 9-day stability in an airtight container at 70° C.; assay type: physicochemical; settings: potency by liquid chromatography
Description: Four lots of the isopropyl alcohol and water-containing crystal of compound (I) as obtained in Example 8 (2) were used.
The 9-day stability of each test sample in an airtight container at 70° C. was determined. The potency of each test sample was determined by liquid chromatography and the percentage residue was calculated.

[2] = Urinary excretion after oral administration; assay type: in vivo; settings: male, SD, rat, urine; rats fasted overnight, 20 mg/kg oral, suspended in 0.5% methylcellulose; disk plate diffusion, Bacillus subtilis ATCC 6633; read-out: Recovery in 24-hrs urine (%)
Description: (C) Urinary Excretion Test Method Male SD rats (6-7 weeks old) from JCL were used. The test compound was suspended in 0.5% methylcellulose solution. The rats were fasted overnight before administration of 20 mg/kg. The urine was collected in the time slots of 0-6 and 6-24 hours after oral administration and the urinary recovery was determined by the disk plate diffusion method using Bacillus subtilis ATCC 6633 as the test organism and sodium citrate agar (0.8% sodium citrate, 0.5% polypeptone, 0.3% beef extract, and 1.0% agar) as the test medium.

[3] = Stability test of the crystal of Example 2 (conditions not stated); assay type: physicochemical
[4] = Stability test (1): one-month stability in an airtight container at 40° C.; assay type: physicochemical; settings: potency by liquid chromatography
Description: The water-containing crystals and isopropyl alcohol and water-containing crystals of Compound (I) or a salt thereof obtained in Examples 5, 7 and 8(1) were tested.
The one-month stability of each test sample in an airtight container at 40° C. was evaluated.
The potency of each test sample was determined by liquid chromatography and the percentage residue of Compound (I) or a salt thereof was calculated.

SMILES	Residue (%) [1] [%]	Residue (%) [4] [%]	also measured
Nc1nc(/C(=N/O)C(=O)NC2C(=O)N3C(C(=O)O)=C(SCc4cn[nH]c4)CSC23)cs1 (stereo not drawn) [Example 37914XP]	98.0	–	–
Nc1nc(/C(=N/O)C(=O)N[C@@H]2C(=O)N3C(C(=O)O)=C(SCc4cn[nH]c4)CS[C@H]23)cs1 [Compound (I), 7β-[2-(2-aminothiazol-4-yl)-2-(Z)-(hydroxyimino)acetamido]-3-[(pyrazol-4-yl)methylthio]-3-cephem-4-carboxylic acid]	–	–	dose excreted [2]: 50%
Nc1nc(/C(=N/O)C(=O)N[C@@H]2C(=O)N3C(C(=O)O)=C(SCc4cn[nH]c4)CS[C@H]23)cs1 [Example 2, 7β-[2-(2-aminothiazol-4-yl)-2-(Z)-(hydroxyimino)acetamido]-3-[(pyrazol-4-yl)methylthio]-3-cephem-4-carboxylic acid]	–	–	stability in the stability test [3]: stable
Nc1nc(/C(=N/O)C(=O)NC2C(=O)N3C(C(=O)O)=C(SCc4cn[nH]c4)CSC23)cs1 (stereo not drawn) [Example 35414OP]	98.7	–	–

Now from value to compound, other results behind:

Residue (%) [1] [%]	Residue (%) [4] [%]	SMILES	also measured
–	99.2	Nc1nc(/C(=N/O)C(=O)N[C@@H]2C(=O)N3C(C(=O)O)=C(SCc4cn[nH]c4)CS[C@H]23)cs1 [Example 7, 7β-[2-(2-aminothiazol-4-yl)-2-(Z)-(hydroxyimino)acetamido]-3-[(pyrazol-4-yl)methylthio]-3-cephem-4-carboxylic acid]	–
–	98.5	Nc1nc(/C(=N/O)C(=O)N[C@@H]2C(=O)N3C(C(=O)O)=C(SCc4cn[nH]c4)CS[C@H]23)cs1 [Example 8(1), 7β-[2-(2-aminothiazol-4-yl)-2-(Z)-(hydroxyimino)acetamido]-3-[(pyrazol-4-yl)methylthio]-3-cephem-4-carboxylic acid]	–
–	98.2	Nc1nc(/C(=N/O)C(=O)N[C@@H]2C(=O)N3C(C(=O)O)=C(SCc4cn[nH]c4)CS[C@H]23)cs1 [Example 5, 7β-[2-(2-amino-thiazol-4-yl)-2-(Z)-(hydroxyimino)acetamido]-3-[(pyrazol-4-yl)methylthio]-3-cephem-4-carboxylic acid]	–
99.2	–	Nc1nc(/C(=N/O)C(=O)NC2C(=O)N3C(C(=O)O)=C(SCc4cn[nH]c4)CSC23)cs1 (stereo not drawn) [Example 35534OP]	–
98.0	–	Nc1nc(/C(=N/O)C(=O)NC2C(=O)N3C(C(=O)O)=C(SCc4cn[nH]c4)CSC23)cs1 (stereo not drawn) [Example 35434OP]	–

Source: patent publication US20010056089A1, “Novel crystal of cephalosporin compound” (FUJISAWA PHARMACEUTICAL CO., LTD., priority 1995, published 2001)
